{"source": "patent US20260248824A1", "about": "“LIPID NANOPARTICLES” (SHIZUOKA PREFECTURAL UNIVERSITY CORPORATION, priority 2023, published 2026)", "test_system": "Insulinoma INS-1 cells derived from rat pancreatic β cells", "assay": "Antiapoptotic effects on pancreatic β cells (cleaved caspase-3 western blotting, thapsigargin-induced)", "format": "cell-based", "details": "thapsigargin 300 nM, nobiletin concentration 20 μM, 14 hours, FIG. 20", "method": "Insulinoma INS-1 cells derived from rat pancreatic β cells were seeded into a 6-well dish at 8×10^5 cells/well. […] After 14 hours of treatment, the cells were collected and subjected to SDS-PAGE, and protein expression in pancreatic β cells was analyzed by western blotting using a cleaved caspase-3 antibody as an indicator of apoptosis. Correction was made using the expression level of 3-actin as an internal standard.", "data": [{"smiles": "COc1ccc(-c2cc(=O)c3c(OC)c(OC)c(OC)c(OC)c3o2)cc1OC", "note": "[nobiletin alone, nobiletin]", "values": [{"measurement": "Suppression of thapsigargin-induced increase in cleaved caspase 3 (antiapoptotic activity)", "result": "The effects were comparative with nobiletin alone"}]}]}
